Molecular target: Cystathionine gamma-lyase (Homo sapiens, UniProt P32929)
Assay: CSE In Vitro Assay

Chain of Cystathionine gamma-lyase (P32929 whole entry): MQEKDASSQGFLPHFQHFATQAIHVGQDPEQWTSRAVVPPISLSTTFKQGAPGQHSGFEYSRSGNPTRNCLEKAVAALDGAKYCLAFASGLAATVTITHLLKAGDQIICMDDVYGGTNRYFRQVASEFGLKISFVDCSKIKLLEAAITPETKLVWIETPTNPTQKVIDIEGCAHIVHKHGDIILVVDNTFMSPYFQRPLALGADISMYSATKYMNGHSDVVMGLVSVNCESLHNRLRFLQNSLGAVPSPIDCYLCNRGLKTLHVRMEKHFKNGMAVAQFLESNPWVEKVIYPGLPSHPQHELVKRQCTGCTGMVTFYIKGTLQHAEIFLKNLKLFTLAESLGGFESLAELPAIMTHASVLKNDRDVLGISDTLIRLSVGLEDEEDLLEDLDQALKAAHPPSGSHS

Compound | IC50
N#CCC(N)c1nnn[nH]1 (configuration not stated) [US10227314, Example 1] | > 100 µM
C#CC[C@H](N)c1nnn[nH]1 [US10227314, Example 2] | < 25 µM

Reference: BindingDB's records for patent US10227314 (Sova Pharmaceuticals, 2019)
